Reference: patent publication EP0111809A1, “Pyrazolo(4.3-b)(1.4)oxazines, processes for their preparation and their use as medicaments” (Troponwerke GmbH & Co. KG, priority 1982, dated 1984)

Key:
[1] = system: Lipoxygenase in PMN-Leukozyten; experiment: Inhibition of lipoxygenase in PMN leukocytes (release of 5-HETE); type: cell-based; details: species (human or rabbit) not given
Text: Der Nachweis der lipoxygenasehemmenden Eigenschaften der neuen, erfindungsgemäßen Verbindungen erfolgt analog der Methode von Bailey et al., J. Biol. Chem. 255, 5996, 1980 und nach Blackwell and Flower, Prostaglandins 16, 417, 1978. Bei dieser Testmethode wird der Metabolismus radioaktiv markierter Arachidonsäure an gewaschenen Humanthrombozyten untersucht. Bei diesem in-vitro-Test werden die radioaktiv markierten Metaboliten aus dem Reaktionsansatz extrahiert und dünnschichtchromatographisch getrennt. Das Autoradiogramm wird mit Dünnschichtscanner ausgewertet. Bei diesen Testbedingungen werden die markierten Metaboliten von der nicht umgesetzten Arachidonsäure getrennt und sind anschließend auszuwerten. Die Verteilung der Radioaktivität auf die während der Metabolisierung gebildeten Cyclooxygenaseprodukte Thromboxan B2 (TXB2) und 12-Hydroxy-5.8.10-heptadekatriensäure (HHT) bzw. das Lipoxygenaseprodukt 12-Hydroxy-5.8.11.14-eikosa- tetraensäure (HETE) unter dem Einfluß der Inhibitoren stellt ein Maß für die Hemmung der Enzyme dar.
Analog dem o.a. Test lassen sich die lipoxygenasehemmenden Eigenschaften der neuen, erfindungsgemäßen Verbindungen auch an Leukozyten nachweisen. Die polymorphkernigen Leukozyten des Menschen und des Kaninchens metabolisieren die Arachidonsäure zu 5-Hydroxy-5.8.11.14-eikosatetraensäure (5-HETE) und Leukotrien B4 (5S, 12R-Dihydroxy-6 cis, 8.10 trans, 14 ciseikosatetraensäure). Die Hemmung der Freisetzung von 5-HETE und Leukotrien B4 aus den Leukozyten stellt ein Maß für den lipoxygenasehemmenden Effekt der neuen, erfindungsgemäßen Verbindungen dar (vgl. Tabelle A).
Der Test mit den Humanleukozyten wird nach Borgeat and Samuelsson (J.Biol. Chem. 254, 2643, 1979 und Proc. Natl. Acad. Sci. U.S.A. 76, 2148, 1979), mit Kaninchenleukozyten nach Walker and Parish (Intern. Archs. Allergy Appl. Immun. 66, 83, 1981) durchgeführt.

Carrageenanödembildung = experiment: Carrageenan-induced oedema model, oral administration; type: in vivo; details: Hemmung der Carrageenanödembildung nach oraler Gabe
Text: Die erfindungsgemäßen Verbindungen sind auch in-vivo wirksam. Diese Wirkung wird durch die Messung der Hemmung der Leukozytenmigration nach an sich bekannten Methoden nachgewiesen (vgl. Higgs et al., Biochemical Pharmacology 28, 1959, (1979) und Eur. J. Pharmacol. 66,81 (1981)). Die erfindungsgemäßen Verbindungen reduzieren auch die ödembildung im Carrageenan-Entzündungsmodell, (vgl. Tabelle C) und hemmen die Metastasierung von B-16 Melanom (nach Honn, et.al. Science 212, 1981).

Hyperalgesie = experiment: Randall-Selitto hyperalgesia test, oral administration; type: in vivo; details: Hemmung der Hyperalgesie nach Randall-Selitto nach oraler Gabe
Text: Die erfindungsgemäßen Verbindungen sind auch in vivo wirksam im Hyperalgesie-Test nach Randall-Selitto, vgl. Tabelle B (Randall, L.O., Selitto, J., Arch. Int. Pharmakodyn, 111, 209-219, 1957).

| Compound | Minimale Konzentration (mol/l) für die Hemmung der Lipoxygenase in PMN-Leukozyten (5-HETE) [1] | DE50[mg/kg], oral (Carrageenanödembildung) | DE50[mg/kg], oral (Hyperalgesie) |
| --- | --- | --- | --- |
| 2-Methyl-5-phenylpyrazolo[4.3-b][1.4]oxazin [Beispiel 2] | 5 . 10^-6 mol/l | 10,3 mg/kg | 0,80 mg/kg |
| CN1c2[nH]ncc2O[C@@H](c2ccccc2)[C@H]1c1ccccc1 (relative stereo) [Beispiel 3, cis-7-Methyl-5,6-diphenylpyrazolo[4.3-b][1.4]oxazin] | 5 . 10^-6 mol/l | 12,7 mg/kg | 1,23 mg/kg |
| CN1C=COc2cn[nH]c21 [Beispiel 1, 7-Methylpyrazolo[4.3-b][1.4]oxazin] | > 10^-5 mol/l | 13,3 mg/kg | 19,7 mg/kg |
| Cc1n[nH]c2c1OC(c1ccccc1)=C(c1ccccc1)N2C [Beispiel 4, 3,7-Dimethyl-5,6-diphenylpyrazolo[4.3-b][1.4]oxazin] | 10^-5 mol/l | 11,3 mg/kg | 7,7 mg/kg |
| CCCc1n[nH]c2c1OC(c1ccccc1)=C(c1ccccc1)N2C [Beispiel 5, 7-Methyl-3-propyl-5,6-diphenylpyrazolo[4.3-b][1.4]oxazin] | > 10^-5 mol/l | 14,2 mg/kg | – |
| CC(=O)n1nc(C)c2c1N(C)C(c1ccccc1)=C(c1ccccc1)O2 [Beispiel 6, 1-Acetyl-3,7-dimethyl-5.6-diphenylpyrazolo[4.3-b][1.4]-oxazin] | 5 . 10^-6 mol/l | 2,5 mg/kg | – |
| CC(C)c1n[nH]c2c1OC(c1ccccc1)C(c1ccccc1)N2C (centres unmarked) [compound 7] | 5 . 10^-6 mol/l | – | – |
| CN1CCOc2cn(Cc3ccc(Cl)c(Cl)c3)nc21 [compound 8] | 10^-5 mol/l | – | – |
| CN1CC(c2ccccc2)Oc2cn(C)nc21 (centres unmarked) [compound 9] | 10^-5 mol/l | – | – |
| CN1c2[nH]ncc2OC(c2ccccc2)C1c1ccccc1 (centres unmarked) [compound 10] | 5.10^-6 mol/l | – | – |
